Measurements taken from patent US11518760B2 (Liverpool School of Tropical Medicine, priority 2017, dated 2022).

Tested on: C6/36 Aedes albopictus cell line infected with Wolbachia pipientis (Wolbachia strain wAlbB)
Assay: In vitro insect cell line assay (anti-Wolbachia screen, SYTO 11 high content imaging)
Format: cell-based
Conditions: 168 h; C6/36 Aedes albopictus cells infected with Wolbachia pipientis wAlbB, 7 days incubation, SYTO 11 imaging; read-out: In vitro anti-Wolbachia activity
How it was run: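 SYTO 11 staining (15 min), high-content imaging and texture analysis were the read-out on day 7. Before that, C6/36 mosquito cells carrying Wolbachia strain wAlbB were incubated at 26 °C with test compound at 5 μM final, alongside DMSO-only control wells.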

Row | Structure (SMILES) | EC50 [nM]
1 | COc1ccc(CNc2nc(NC(C)C)nc3ccccc23)cc1OC [Example 140, N^4-(3,4-dimethoxybenzyl)-N^2-isopropylquinazoline-2,4-diamine] | 100 to 1000
2 | FC(F)(F)c1ccccc1CNc1nc(NC2CNC2)nc2ncccc12 [Example 141, N^2-(azetidin-3-yl)-N^4-(2-(trifluoromethyl)benzyl)pyrido[2,3-d]pyrimidine-2,4-diamine] | 100 to 1000
3 | CN1CC(Nc2nc(NCc3ccccc3C(F)(F)F)c3cccnc3n2)C1 [Example 142, N^2-(1-methylazetidin-3-yl)-N^4-(2-(trifluoromethyl)benzyl)pyrido[2,3-d]pyrimidine-2,4-diamine] | 1000 to 100000
4 | CNc1nc(NCc2ccccc2C(F)(F)F)c2cccnc2n1 [Example 143, N^2-methyl-N^4-(2-(trifluoromethyl)benzyl)pyrido[2,3-d]pyrimidine-2,4-diamine] | 10 to 100
5 | FC(F)(F)c1ccccc1CNc1nc(NC2COC2)nc2ncccc12 [Example 144, N^2-(oxetan-3-yl)-N^4-(2-(trifluoromethyl)benzyl)pyrido[2,3-d]pyrimidine-2,4-diamine] | 10 to 100
6 | CNCc1nc(NCc2ccccc2C(F)(F)F)c2cccnc2n1 [Example 145, 2-((methylamino)methyl)-N-(2-(trifluoromethyl)benzyl)pyrido[2,3-d]pyrimidin-4-amine] | 1000 to 100000
7 | NC(=O)c1nc(NCc2ccccc2C(F)(F)F)c2cccnc2n1 [Example 146, 4-((2-(trifluoromethyl)benzyl)amino)pyrido[2,3-d]pyrimidine-2-carboxamide] | 1000 to 100000
8 | FC(F)(F)c1ncccc1CNc1nc(NC2CNC2)nc2ncccc12 [Example 147, N^2-(azetidin-3-yl)-N^4-((2-(trifluoromethyl)pyridin-3-yl)methyl)pyrido[2,3-d]pyrimidine-2,4-diamine] | 1000 to 100000
9 | CN1CC(Nc2nc(NCc3cccnc3C(F)(F)F)c3cccnc3n2)C1 [Example 148, N^2-(1-methylazetidin-3-yl)-N^4-((2-(trifluoromethyl)pyridin-3-yl)methyl)pyrido[2,3-d]pyrimidine-2,4-diamine] | 1000 to 100000
10 | CNc1nc(NCc2cccnc2C(F)(F)F)c2cccnc2n1 [Example 149, N^2-methyl-N^4-((2-(trifluoromethyl)pyridin-3-yl)methyl)pyrido[2,3-d]pyrimidine-2,4-diamine] | 100 to 1000
11 | CC(C)Nc1nc(NCc2cccnc2C(F)(F)F)c2cccnc2n1 [Example 150, N^2-isopropyl-N^4-((2-(trifluoromethyl)pyridin-3-yl)methyl)pyrido[2,3-d]pyrimidine-2,4-diamine] | 10 to 100
12 | CC(C)Nc1nc(NCc2cccnc2C(F)(F)F)c2ccccc2n1 [Example 151, N^2-isopropyl-N^4-((2-(trifluoromethyl)pyridin-3-yl)methyl)quinazoline-2,4-diamine] | 100 to 1000
13 | CC(C)Nc1nc(NCc2cccnc2C(F)(F)F)c2ncccc2n1 [Example 152, N^2-isopropyl-N^4-((2-(trifluoromethyl)pyridin-3-yl)methyl)pyrido[3,2-d]pyrimidine-2,4-diamine] | 100 to 1000
14 | CC(C)Nc1nc(NCc2cccnc2C(F)(F)F)c2sccc2n1 [Example 153, N^2-isopropyl-N^4-((2-(trifluoromethyl)pyridin-3-yl)methyl)thieno[3,2-d]pyrimidine-2,4-diamine] | 10 to 100
15 | CNCc1nc(NCc2ccccc2C(F)(F)F)c2sccc2n1 [Example 154, 2-((methylamino)methyl)-N-(2-(trifluoromethyl)benzyl)thieno[3,2-d]pyrimidin-4-amine] | 1000 to 100000
16 | NC(=O)c1nc(NCc2ccccc2C(F)(F)F)c2sccc2n1 [Example 155, 4-((2-(trifluoromethyl)benzyl)amino)thieno[3,2-d]pyrimidine-2-carboxamide] | 1000 to 100000
17 | FC(F)(F)c1ccccc1CNc1nc(NC2CC2)nc2ncccc12 [Example 156, N^2-cyclopropyl-N^4-(2-(trifluoromethyl)benzyl)pyrido[2,3-d]pyrimidine-2,4-diamine] | 1 to 10
18 | Oc1nc(NCc2ccccc2C(F)(F)F)c2cccnc2n1 [Example 157, 4-((2-(trifluoromethyl)benzyl)amino)pyrido[2,3-d]pyrimidin-2-ol] | 1000 to 100000
19 | FC(F)(F)c1ncccc1CNc1nc(NC2COC2)nc2ncccc12 [Example 158, N^2-(oxetan-3-yl)-N^4-((2-(trifluoromethyl)pyridin-3-yl)methyl)pyrido[2,3-d]pyrimidine-2,4-diamine] | 100 to 1000
20 | FC(F)(F)c1ncccc1CNc1nc(NC2CC2)nc2ncccc12 [Example 159, N^2-cyclopropyl-N^4-((2-(trifluoromethyl)pyridin-3-yl)methyl)pyrido[2,3-d]pyrimidine-2,4-diamine] | 1 to 10
21 | CC(C)Nc1nc(N(C)Cc2cccnc2C(F)(F)F)c2cccnc2n1 [Example 160, N^2-isopropyl-N^4-methyl-N4-((2-(trifluoromethyl)pyridin-3-yl)methyl)pyrido[2,3-d]pyrimidine-2,4-diamine] | 10 to 100
22 | CC(C)N(C)c1nc(N(C)Cc2cccnc2C(F)(F)F)c2cccnc2n1 [Example 161, N^2-isopropyl-N^2,N^4-dimethyl-N^4-((2-(trifluoromethyl)pyridin-3-yl)methyl)pyrido[2,3-d]pyrimidine-2,4-diamine] | 1 to 10
23 | CC(C)N(C)c1nc(NCc2cccnc2C(F)(F)F)c2cccnc2n1 [Example 162, N^2-isopropyl-N^2-methyl-N^4-((2-(trifluoromethyl)pyridin-3-yl)methyl)pyrido[2,3-d]pyrimidine-2,4-diamine] | 0.01 to 1
24 | FC(F)(F)c1ncccc1CNc1nc(N2CCC2)nc2ncccc12 [Example 163, 2-(azetidin-1-yl)-N-((2-(trifluoromethyl)pyridin-3-yl)methyl)pyrido[2,3-d]pyrimidin-4-amine] | 10 to 100
25 | CC(C)Sc1nc(NCc2cccnc2C(F)(F)F)c2cccnc2n1 [Example 164, 2-(isopropylthio)-N-((2-(trifluoromethyl)pyridin-3-yl)methyl)pyrido[2,3-d]pyrimidin-4-amine] | 1 to 10
26 | CC(C)Nc1cc(NCc2cccnc2C(F)(F)F)c2cccnc2n1 [Example 165, N^2-isopropyl-N^4-((2-(trifluoromethyl)pyridin-3-yl)methyl)-1,8-naphthyridine-2,4-diamine] | 10 to 100
27 | CC(C)Nc1nc(NCc2c(F)cccc2C(F)(F)F)c2cccnc2n1 [Example 166, N^4-(2-fluoro-6-(trifluoromethyl)benzyl)-N^2-isopropylpyrido[2,3-d]pyrimidine-2,4-diamine] | 100 to 1000
28 | CN(C)c1nc(NCc2c(F)cccc2C(F)(F)F)c2cccnc2n1 [Example 169, N^4-(2-fluoro-6-(trifluoromethyl)benzyl)-N^2,N^2-dimethylpyrido[2,3-d]pyrimidine-2,4-diamine] | 100 to 1000
29 | FC(F)(F)c1ncccc1CNc1ncnc2ncccc12 [Example 170, N-((2-(trifluoromethyl)pyridin-3-yl)methyl)pyrido[2,3-d]pyrimidin-4-amine] | 1000 to 100000
30 | CC1(O)CN(c2nc(NCc3cccnc3C(F)(F)F)c3cccnc3n2)C1 [Example 171, 3-methyl-1-(4-(((2-(trifluoromethyl)pyridin-3-yl)methyl)amino)pyrido[2,3-d]pyrimidin-2-yl)azetidin-3-ol] | 100 to 1000
